Experimental findings from the NIST ThermoML archive (doi:10.1021/je800742d) are described below.

Numbers after ± are expanded uncertainties.

The conditions of this series: Crystal; visual observation.

As to `CN1CCN(c2cc3c(cc2F)c(=O)c(C(=O)O)cn3-c2ccc(F)cc2)CC1` [difloxacin], the Normal melting temperature was 278.00 ± 0.5 °C.
